In series [1] the test system is HCT-116. The series is described as follows: Antitumor activity against human HCT116 cells xenografted in athymic nu/nu Harlan mouse assessed as tumor growth inhibition at 100 mg/kg, po qd for 21 days measured on day 22. Type of series: functional. The following applies: read-out: TGI. (A xenograft is tissue or cells of one species grown in another, often human tumour cells in immunodeficient mice.)

Series [2] is described as follows: Apparent permeability from apical to basolateral side of human Caco2 cells. Type of series: ADME, cell-based. The conditions noted are these: Caco-2.
Series [3] has as its system Mus musculus. The experiment in a line: Toxicity in athymic nu/nu Harlan mouse xenografted with human HCT116 cells assessed as body weight loss at 50 mg/kg, po QD for 21 days measured on day 5. Type of series: organism-based, HCT-116. Also noted: dose 50 mg/kg, route oral. The conditions noted are these: in vivo, 504 h.
Series [4] can be described thus: Half life in human liver microsomes. Type of series: ADME, Microsome. Background: Microsomes from liver hold many membrane-bound enzymes, among them those of drug oxidation.
Series [5] in a line: Half life in dog liver microsomes. Type of series: ADME, Canis lupus familiaris, Microsome.
In series [6] the test system is HCT-116. The series is described as follows: Antitumor activity against human HCT116 cells xenografted in athymic nu/nu Harlan mouse assessed as tumor growth inhibition at 25 mg/kg, po qd for 21 days measured on day 22. Type of series: functional. The following applies: read-out: TGI.
The nature of series [7]: Apparent permeability from basolateral to apical side of human Caco2 cells. Type of series: ADME, cell-based. The following applies: Caco-2. (Caco-2 cells form a polarised layer with tight junctions and transporters.)
For series [8], the system named is Mus musculus. The experiment in a line: Toxicity in athymic nu/nu Harlan mouse xenografted with human HCT116 cells assessed as mouse survival at 25 mg/kg, po QD for 21 days measured on day 22. Also noted: dose 25 mg/kg, route oral. Type of series: organism-based, HCT-116. The following applies: in vivo, 504 h.
For series [9], the system named is Mus musculus. The series is described as follows: Toxicity in athymic nu/nu Harlan mouse xenografted with human HCT116 cells assessed as mouse survival at 50 mg/kg, po QD for 21 days measured on day 22. Type of series: organism-based, HCT-116. Set-up: dose 50 mg/kg, route oral. The following applies: in vivo, 504 h.
The nature of series [10]: Half life in rat liver microsomes. Type of series: ADME, Microsome.
A short description of series [11]: Half life in mouse liver microsomes. Type of series: ADME, Microsome. The following applies: liver microsomes.
Series [12] deals with HCT-116. The series is described as follows: Antitumor activity against human HCT116 cells xenografted in athymic nu/nu Harlan mouse assessed as tumor growth inhibition at 50 mg/kg, po qd for 21 days measured on day 22. Type of series: functional. The following applies: read-out: TGI.
Series [13] can be described thus: Kinetic solubility of the compound at pH 7 with […] DMSO. The conditions noted are these: buffer, read-out: Kinetic_solubility. Type of series: physicochemical.
The subject of series [14] is Mus musculus. The series is described as follows: Toxicity in athymic nu/nu Harlan mouse xenografted with human HCT116 cells assessed as mouse survival at 100 mg/kg, po QD for 21 days measured on day 22. Set-up: dose 100 mg/kg, route oral. The conditions noted are these: in vivo, 504 h. Type of series: organism-based, HCT-116.
Series [15] in a line: 1-Octanol-sodium phosphate buffer distribution coefficient, log D of the compound at pH 7.4. The conditions noted are these: 1-octanol/sodium phosphate buffer, read-out: logD. Type of series: physicochemical.
Series [16] relates to Mus musculus. The experiment in a line: Toxicity in athymic nu/nu Harlan mouse xenografted with human HCT116 cells assessed as body weight loss at 100 mg/kg, po QD for 21 days measured on day 22. The conditions noted are these: in vivo, 504 h. Type of series: organism-based, HCT-116. Also noted: dose 100 mg/kg, route oral.
For series [17], the system named is Mus musculus. The series is described as follows: Toxicity in athymic nu/nu Harlan mouse xenografted with human HCT116 cells assessed as body weight loss at 200 mg/kg, po QD for 21 days measured on day 8. Type of series: organism-based, HCT-116. Also noted: dose 200 mg/kg, route oral. The conditions noted are these: in vivo, 504 h.
In series [18] the test system is Mus musculus. The series is described as follows: Toxicity in nude BALB/c mouse xenografted with human HCT116 cells assessed as mouse survival at 200 mg/kg, po QD for 21 days measured on day 22. Type of series: organism-based, HCT-116. Set-up: dose 200 mg/kg, route oral. The conditions noted are these: in vivo, 504 h.
The subject of series [19] is Mus musculus. The experiment in a line: Toxicity in athymic nu/nu Harlan mouse xenografted with human HCT116 cells assessed as mouse survival at 200 mg/kg, po QD for 21 days measured on day 22. Type of series: organism-based, HCT-116. Set-up: dose 200 mg/kg, route oral. The conditions noted are these: in vivo, 504 h.
Series [20] has as its system Mus musculus. The experiment in a line: Toxicity in athymic nu/nu Harlan mouse xenografted with human HCT116 cells assessed as body weight loss at 200 mg/kg, po QD for 21 days measured on day 19. Type of series: organism-based, HCT-116. Also noted: dose 200 mg/kg, route oral. The following applies: in vivo, 504 h.
A further series deals with COLO 205. The series is described as follows: Antiproliferative activity against human COLO205 cells after 96 hrs by celltiter 96 assay. The conditions noted are these: COLO 205, 96 h. Type of series: functional, cell-based.
Series [21] is described as follows: Oral bioavailability in nude BALB/c mouse at 50 mg/kg. Type of series: ADME, organism-based. The following applies: in vivo.
The subject of series [22] is Mus musculus. The series is described as follows: Toxicity in nude BALB/c mouse xenografted with human A2780 cells assessed as maximum body weight loss at 200 mg/kg, po QD for 21 days measured on day 13. Type of series: organism-based. Also noted: dose 200 mg/kg, route oral. The following applies: in vivo, 504 h.
Series [23] concerns Mus musculus. The series is described as follows: Toxicity in athymic nu/nu Harlan mouse xenografted with human HCT116 cells assessed as body weight loss at 300 mg/kg, po QD for 21 days measured on day 19. Type of series: organism-based, HCT-116. Also noted: dose 300 mg/kg, route oral. The conditions noted are these: in vivo, 504 h.
Series [24] relates to Mus musculus. The experiment in a line: Toxicity in nude BALB/c mouse xenografted with human HCT116 cells assessed as body weight loss at 200 mg/kg, po QD for 21 days measured on day 19. Also noted: dose 200 mg/kg, route oral. Type of series: organism-based, HCT-116. The conditions noted are these: in vivo, 504 h.

Bounds are passed on as bounds.

For orientation: Papp A→B means how fast a substance crosses the layer from the apical side. The half-life is the time needed for the level to fall by half in the phase considered. A low value points to rapid decline. The term Papp B→A denotes the apparent permeability from the basolateral to the apical side of a cell layer. Usually logD stands for lipophilicity at a set pH, counting ionised and neutral species. Consider `CN(C)CC(C)(C)Cn1c(CC(C)(C)C)nc2cc(/C=C/C(=O)NO)ccc21.Cl.Cl`, for which the inhibition in vivo at 100 mg/kg with HCT-116 [1] stood at 85%. The Papp A→B in series [2] was 19.4 ×10⁻⁶ cm/s. Besides, the Activity is listed as 5.6% in the series on Mus musculus [3]; “Non-toxic” in the series on Mus musculus [8]; “Non-toxic” with Mus musculus [9]; “Non-toxic” with Mus musculus [14]; 13.1% with Mus musculus [16]. Besides, the half-life is greater than 1 h in series [4], greater than 1 h in series [5], 0.683 h in series [10] and 0.333 h in series [11]. Also, the inhibition in vivo at 25 mg/kg in the series on HCT-116 [6] came out at 30%. Further, in series [7], the Papp B→A turned out to be 14.9 ×10⁻⁶ cm/s. In addition, the inhibition in vivo at 50 mg/kg in the series with HCT-116 [12] came out at 55%. The solubility kinetic in series [13] was greater than 200 µM. In addition, the logD in [15] came to 2.41.
As a reminder, the IC50 is the concentration at which inhibition is half-maximal. A lower IC50 goes with inhibition by little substance. Usually bioavailability stands for dose-corrected exposure relative to a reference, in per cent. Low readings indicate little systemic uptake, high ones much systemic uptake. Take `O=C(CCCCCCC(=O)Nc1ccccc1)NO` [VORINOSTAT]: the Activity is 8.9% in the series with Mus musculus [17]; “Non-toxic” with Mus musculus [18]; “Non-toxic” in the series with Mus musculus [19]; 4.6% in the series on Mus musculus [20]; 9.3% with Mus musculus [22]; 5.5% in the series with Mus musculus [23]. The Activity in the series with Mus musculus [24] is given as 1.9%. Besides, the half-life in [4], in series [5], in series [10] and in series [11] was greater than 1 h each time. In the series with COLO 205, this molecule displayed an IC50 of 2120 nM. The bioavailability in series [21] amounted to 8.3%. Also, the solubility kinetic in series [13] was greater than 200 µM.
